In ChEMBL document CHEMBL1821713, “Synthesis and in vitro activity of novel 1,2,4-triazolo[4,3-a]pyrimidine oxazolidinone antibacterial agents. Part II” (Bioorg Med Chem Lett, 2011):
In brackets after ≈: the same amount, converted by molar mass.

Key:
Staphylococcus aureus [1] = test: Antibacterial activity against Staphylococcus aureus ATCC 25923 by CLSI method; type: functional
Enterococcus faecalis = test: Antibacterial activity against Enterococcus faecalis ATCC 29212 by CLSI method; type: functional
Staphylococcus aureus [2] = test: Antibacterial activity against Staphylococcus aureus FDA 209P by CLSI method relative to Linezolid; type: functional
Enterococcus faecium = test: Antibacterial activity against Enterococcus faecium 06076VRE by CLSI method relative to Linezolid; type: functional
[3] = tested on: Staphylococcus epidermidis; test: Antibacterial activity against Staphylococcus epidermidis ATCC 14990 by CLSI method relative to Linezolid; type: functional
Staphylococcus aureus [4] = test: Antibacterial activity against methicillin-resistant Staphylococcus aureus 43300 by CLSI method; type: functional
Staphylococcus aureus [5] = test: Antibacterial activity against Staphylococcus aureus ATCC 49775 PVL positive by CLSI method relative to Linezolid; type: functional
Staphylococcus aureus [6] = test: Antibacterial activity against Staphylococcus aureus ATCC 29213 by CLSI method relative to Linezolid; type: functional
Streptococcus pyogenes = test: Antibacterial activity against Streptococcus pyogenes ATCC 19615 by CLSI method relative to Linezolid; type: functional
CYP2C9 = CYP2C9 (Homo sapiens, UniProt P11712); test: Inhibition of recombinant human cytochrome P450-2C9 at 10 uM by fluorimetric analysis; type: ADME
CYP1A2 = target: T1, CYP1A2 (Homo sapiens, UniProt P05177); test: Inhibition of human recombinant CYP1A2 at 10 uM by fluorimetric analysis; type: ADME
T1 sequence (P05177 whole entry): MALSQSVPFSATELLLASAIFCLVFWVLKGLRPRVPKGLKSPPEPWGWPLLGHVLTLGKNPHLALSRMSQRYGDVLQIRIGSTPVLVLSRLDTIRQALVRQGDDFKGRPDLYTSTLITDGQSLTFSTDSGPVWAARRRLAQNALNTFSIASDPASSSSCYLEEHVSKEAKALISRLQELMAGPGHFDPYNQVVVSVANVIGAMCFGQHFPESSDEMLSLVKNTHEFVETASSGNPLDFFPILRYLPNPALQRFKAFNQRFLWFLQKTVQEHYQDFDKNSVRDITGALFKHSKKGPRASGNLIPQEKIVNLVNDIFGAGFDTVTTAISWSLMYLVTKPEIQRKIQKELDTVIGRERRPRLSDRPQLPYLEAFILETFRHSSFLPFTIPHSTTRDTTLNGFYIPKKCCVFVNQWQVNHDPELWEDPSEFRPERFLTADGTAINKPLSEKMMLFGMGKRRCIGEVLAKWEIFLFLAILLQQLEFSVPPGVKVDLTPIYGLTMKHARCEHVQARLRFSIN

CYP2D6 = CYP2D6 (Homo sapiens, UniProt P10635); test: Inhibition of human recombinant CYP2D6 at 10 uM by fluorimetric analysis; type: ADME
CYP3A4 = CYP3A4 (Homo sapiens, UniProt P08684); test: Inhibition of human recombinant CYP3A4 at 10 uM by fluorimetric analysis; type: ADME
Streptococcus pneumoniae = test: Antibacterial activity against Streptococcus pneumoniae ATCC 49619 by CLSI method relative to Linezolid; type: functional
[7] = tested on: Staphylococcus epidermidis; test: Antibacterial activity against Staphylococcus epidermidis ATCC 12228 by CLSI method; type: functional
Staphylococcus aureus [8] = test: Antibacterial activity against Staphylococcus aureus ATCC 13709 Smith by CLSI method relative to Linezolid; type: functional
CYP2C19 = CYP2C19 (Homo sapiens, UniProt P33261); test: Inhibition of human recombinant CYP2C19 at 10 uM by fluorimetric analysis; type: ADME
Staphylococcus aureus [9] = test: Antibacterial activity against Staphylococcus aureus ATCC 700699 Mu 50 by CLSI method relative to Linezolid; type: functional
[10] = tested on: Staphylococcus epidermidis; test: Antibacterial activity against Staphylococcus epidermidis ATCC 12228 by CLSI method relative to Linezolid; type: functional

Chain of CYP2C19 (P33261 whole entry): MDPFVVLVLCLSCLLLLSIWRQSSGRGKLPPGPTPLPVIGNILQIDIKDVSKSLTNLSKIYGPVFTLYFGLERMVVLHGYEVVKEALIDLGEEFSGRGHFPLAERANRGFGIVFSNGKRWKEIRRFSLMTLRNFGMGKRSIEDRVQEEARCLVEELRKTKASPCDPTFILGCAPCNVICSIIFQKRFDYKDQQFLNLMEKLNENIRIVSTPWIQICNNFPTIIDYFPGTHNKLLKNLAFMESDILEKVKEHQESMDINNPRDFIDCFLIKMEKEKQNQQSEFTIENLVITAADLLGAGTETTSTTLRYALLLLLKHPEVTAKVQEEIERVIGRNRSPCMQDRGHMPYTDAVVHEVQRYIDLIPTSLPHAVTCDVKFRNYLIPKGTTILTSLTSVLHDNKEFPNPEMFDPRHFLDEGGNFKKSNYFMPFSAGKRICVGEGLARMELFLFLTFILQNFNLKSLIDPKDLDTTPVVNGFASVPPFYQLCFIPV
Chain of CYP2C9 (P11712 whole entry): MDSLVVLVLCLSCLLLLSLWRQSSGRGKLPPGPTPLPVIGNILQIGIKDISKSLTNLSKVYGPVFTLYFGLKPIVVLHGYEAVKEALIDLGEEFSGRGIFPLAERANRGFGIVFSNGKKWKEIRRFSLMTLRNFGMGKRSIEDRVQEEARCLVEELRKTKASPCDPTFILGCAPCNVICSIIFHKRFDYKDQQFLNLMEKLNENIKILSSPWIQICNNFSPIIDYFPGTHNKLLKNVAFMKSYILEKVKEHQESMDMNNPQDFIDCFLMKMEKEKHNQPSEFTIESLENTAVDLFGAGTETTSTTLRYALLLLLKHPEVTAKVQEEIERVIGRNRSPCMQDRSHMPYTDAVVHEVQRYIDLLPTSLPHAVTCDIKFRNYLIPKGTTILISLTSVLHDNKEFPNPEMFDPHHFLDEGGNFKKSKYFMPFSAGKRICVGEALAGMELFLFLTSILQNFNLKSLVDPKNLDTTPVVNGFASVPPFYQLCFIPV
Chain of CYP3A4 (P08684 whole entry): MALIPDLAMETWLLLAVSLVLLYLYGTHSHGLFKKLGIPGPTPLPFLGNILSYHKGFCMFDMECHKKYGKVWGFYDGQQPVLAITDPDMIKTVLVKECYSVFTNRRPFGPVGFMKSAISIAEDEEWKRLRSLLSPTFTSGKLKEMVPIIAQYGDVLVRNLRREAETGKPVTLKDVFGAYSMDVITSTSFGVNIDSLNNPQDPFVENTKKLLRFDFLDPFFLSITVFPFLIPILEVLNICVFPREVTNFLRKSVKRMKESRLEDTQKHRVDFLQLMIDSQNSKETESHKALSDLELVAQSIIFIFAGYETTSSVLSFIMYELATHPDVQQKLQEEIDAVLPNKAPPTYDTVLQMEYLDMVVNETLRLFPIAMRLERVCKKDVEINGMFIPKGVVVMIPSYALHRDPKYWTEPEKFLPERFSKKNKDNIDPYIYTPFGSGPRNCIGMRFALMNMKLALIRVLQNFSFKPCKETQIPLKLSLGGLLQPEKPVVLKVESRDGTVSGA
Chain of CYP2D6 (P10635 whole entry): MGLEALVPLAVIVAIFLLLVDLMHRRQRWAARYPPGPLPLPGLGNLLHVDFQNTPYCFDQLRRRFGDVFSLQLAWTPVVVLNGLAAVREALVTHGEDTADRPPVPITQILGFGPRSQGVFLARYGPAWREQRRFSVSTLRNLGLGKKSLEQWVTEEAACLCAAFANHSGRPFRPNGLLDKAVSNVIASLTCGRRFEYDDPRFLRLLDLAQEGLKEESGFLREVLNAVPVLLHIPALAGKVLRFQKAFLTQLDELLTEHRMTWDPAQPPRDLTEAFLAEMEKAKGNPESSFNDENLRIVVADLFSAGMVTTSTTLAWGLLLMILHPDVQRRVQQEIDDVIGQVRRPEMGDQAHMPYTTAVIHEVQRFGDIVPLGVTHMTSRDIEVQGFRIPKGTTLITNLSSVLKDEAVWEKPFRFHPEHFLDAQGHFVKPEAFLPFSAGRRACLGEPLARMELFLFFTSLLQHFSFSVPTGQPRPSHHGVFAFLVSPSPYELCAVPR

Row | Compound | MIC (Staphylococcus aureus [1]) [µg/mL] | MIC (Enterococcus faecalis) [µg/mL] | MIC (Staphylococcus aureus [4]) [µg/mL] | MIC [7] [µg/mL] | further results
1 | CC(=O)NC[C@H]1CN(c2ccc(-c3csc(-c4nnc5ncccn45)c3)c(F)c2)C(=O)O1 | 0.125 (≈ 0.276 µM) | 0.06 (≈ 0.133 µM) | 0.125 (≈ 0.276 µM) | 0.25 (≈ 0.553 µM) | fold change (FC) (Staphylococcus aureus [2]): 4; fold change (FC) (Enterococcus faecium): 4; fold change (FC) [3]: 4; fold change (FC) (Staphylococcus aureus [5]): 4; fold change (FC) (Staphylococcus aureus [6]): 4; fold change (FC) (Streptococcus pyogenes): 4; inhibition at 10 µM (CYP2C9): 40.9%; inhibition at 10 µM (CYP1A2): 4.3%; inhibition at 10 µM (CYP2D6): 5.6%; inhibition at 10 µM (CYP3A4): 37.7%; fold change (FC) (Streptococcus pneumoniae): 4; fold change (FC) (Staphylococcus aureus [8]): 4; inhibition at 10 µM (CYP2C19): 36.2%; fold change (FC) (Staphylococcus aureus [9]): 4; fold change (FC) [10]: 4
2 | CC(=O)NC[C@H]1CN(c2ccc(-c3ccc(-c4nnc5ncccn45)c(F)c3)c(F)c2)C(=O)O1 | 0.5 (≈ 1.08 µM) | 0.5 (≈ 1.08 µM) | 0.125 (≈ 0.269 µM) | 0.5 (≈ 1.08 µM) | –
3 | CC(=O)NC[C@H]1CN(c2ccc(-c3cccc(-c4nnc5ncccn45)c3)c(F)c2)C(=O)O1 | 4 (≈ 8.96 µM) | 4 (≈ 8.96 µM) | 1 (≈ 2.24 µM) | 4 (≈ 8.96 µM) | –
4 | CC(=O)NC[C@H]1CN(c2cccc(F)c2)C(=O)O1 | > 16 | > 16 | 16 (≈ 63.4 µM) | 16 (≈ 63.4 µM) | –
5 | CC(=O)NC[C@H]1CN(c2ccc(N3CCOCC3)c(F)c2)C(=O)O1 [LINEZOLID] | – | – | – | 1 (≈ 2.96 µM) | –
6 | COc1ccc(-c2ccc(N3C[C@H](CNC(C)=O)OC3=O)cc2F)cc1-c1nnc2ncccn12 | 16 (≈ 33.6 µM) | 16 (≈ 33.6 µM) | 8 (≈ 16.8 µM) | > 16 | –
7 | CC(=O)NC[C@H]1CN(c2ccc(-c3ccc(-c4nnc5ncccn45)nc3)c(F)c2)C(=O)O1 | 0.25 (≈ 0.559 µM) | 0.5 (≈ 1.12 µM) | 0.125 (≈ 0.279 µM) | 0.5 (≈ 1.12 µM) | –
